# Source: patent publication US20250241310A1, “METHODS AND COMPOSITION FOR CONTROLLING PESTS” (UPL CORPORATION LIMITED, priority 2021, published 2025)
# Experiments:
# Type in all cases: in vivo
# [1] = tested on: seed corn maggot (Delia platura); test: Field trial, seed treatment, pest severity of seed corn maggot
# Protocol: Trials were carried out in field to assess efficacy of flupyrimin against seed corn maggot (Delia platura). Seeds were treated with flupyrimin before sowing. Evaluation was done to evaluate pest severity of said insects at different dosage. Soil Texture=fine sandy loam, pH=7, OM %=0.8.
# [2] = tested on: corn rootworm (Diabrotica virgifera virgifera); test: Field trial, seed treatment, efficacy against corn rootworm (% control and root damage index); conditions: for Damage Index: scale 1-6, corn roots
# Protocol: Trials were carried out in field to assess efficacy of flupyrimin against corn rootworm (Diabrotica virgifera virgifera). Seeds were treated with flupyrimin before sowing. Evaluation was done to check % control of said insects at different dosage. Soil Texture=clay loam, pH=6.89, OM %=3.29.
# Further, the damage index (Scale 1-6) at different concentrations was evaluated.
# Assessment of the amount of damage by larval feeding of D. virgifera on corn roots were made by digging out the root system taking a diameter of approximately 25 cm to a depth of 15 cm. The root systems were then washed so that all crown roots were fairly clean. Damage on the root systems was assessed on 10 plants per plot (40 plants per treatment) using a scale as the following: • 1.0=no feeding damage; • 1.5=visible feeding scars present (not illustrated, but similar to a rating of two); • 2.0=up to three roots pruned slightly; • 2.5=more than three roots pruned, but none chewed to within 4 cm of plant; • 3.0=one to three roots chewed to within 4 cm of plant; • 3.5=more than three roots chewed to within 4 cm of plant; • 4.0=one entire node or equivalent number of roots destroyed • 4.5=about 1.5 nodes destroyed • 5.0=two nodes destroyed • 5.5=about 2.5 nodes destroyed • 6.0=three or more nodes completely destroyed (not illustrated, but similar to a rating of five)
# [3] = tested on: Corn leafhopper (Dalbulus maidis); test: Field trial, % control of adult corn leafhopper per plant
# Protocol: Trials were carried out in field to assess efficacy of flupyrimin against Corn leafhopper (Dalbulus maidis). Evaluation was done to check % control of adult insects per plant at different dosage at 3 days after emergence and 7 days after emergence.
# [4] = tested on: fall army worm (Spodoptera frugiperda); test: Field trial in corn plantation, % control of fall army worm, flupyrimin alone
# Protocol: Trials were carried out in the field to assess efficacy of flupyrimin against fall army worm (Spodoptera frugiperda) in corn plantation. Evaluation was done to check % control of said insects at different dosage for 3, 7, 10, 14 DAA for 1st application and 3, 7, 10, 14, 21, 28, 35, and 42 DAA for 2nd application. The rate of application was 500 lit/ha.
compound,measurement,setting,value
"O=C(/N=c1\ccccn1Cc1ccc(Cl)nc1)C(F)(F)F [Flupyrimin, N-[(E)-1-(6-chloro-3-pyridinylmethyl)pyridin-2 (1H)-ylidene]-2,2,2-trifluoroacetamide]",Pest severity,"[1]; 100 g/100 kg of seeds, 14 DP",0.2
same,Pest severity,"[1]; 100 g/100 kg of seeds, 28 DP",4.3
same,Pest severity,"[1]; 100 g/100 kg of seeds, 35 DP",4.8
same,Pest severity,"[1]; 100 g/100 kg of seeds, 42 DP",5.9
same,Pest severity,"[1]; 200 g/100 kg of seeds, 14 DP",0
same,Pest severity,"[1]; 200 g/100 kg of seeds, 28 DP",0.7
same,Pest severity,"[1]; 200 g/100 kg of seeds, 35 DP",0.9
same,Pest severity,"[1]; 200 g/100 kg of seeds, 42 DP",1.8
same,Pest severity,"[1]; 300 g/100 kg of seeds, 14 DP",0
same,Pest severity,"[1]; 300 g/100 kg of seeds, 28 DP",0.3
same,Pest severity,"[1]; 300 g/100 kg of seeds, 35 DP",0.5
same,Pest severity,"[1]; 300 g/100 kg of seeds, 42 DP",0.9
same,Pest severity,"[1]; 400 g/100 kg of seeds, 14 DP",0
same,Pest severity,"[1]; 400 g/100 kg of seeds, 28 DP",0.3
same,Pest severity,"[1]; 400 g/100 kg of seeds, 35 DP",0.5
same,Pest severity,"[1]; 400 g/100 kg of seeds, 42 DP",1.1
same,Pest severity,"[1]; 500 g/100 kg of seeds, 14 DP",0
same,Pest severity,"[1]; 500 g/100 kg of seeds, 28 DP",0
same,Pest severity,"[1]; 500 g/100 kg of seeds, 35 DP",0
same,Pest severity,"[1]; 500 g/100 kg of seeds, 42 DP",0.3
same,efficacy against seed corn maggot (in words),[1]; summary of Table 3,effective
same,Damage Index,[2]; 100 g/100 kg of seeds,2.3
same,Damage Index,[2]; 200 g/100 kg of seeds,1.8
same,Damage Index,[2]; 300 g/100 kg of seeds,1.1
same,Damage Index,[2]; 400 g/100 kg of seeds,1
same,Damage Index,[2]; 500 g/100 kg of seeds,1
same,% Control,[2]; seed treatment 100 g/100 kg of seeds,49.39%
same,% Control,[2]; seed treatment 200 g/100 kg of seeds,70.4%
same,% Control,[2]; seed treatment 300 g/100 kg of seeds,96.38%
same,% Control,[2]; seed treatment 400 g/100 kg of seeds,99.36%
same,% Control,[2]; seed treatment 500 g/100 kg of seeds,100%
same,insect control against corn rootworm (in words),[2]; summary of Table 1,good insect control
same,reduction of root damage (in words),"[2]; summary of Table 2, different concentrations",efficacious in reducing the damage
same,% Control,"[3]; 100 g ai/100 kg, rate 0.2 Kg-L/ha, 3 DAE",65%
same,% Control,"[3]; 100 g ai/100 kg, rate 0.2 Kg-L/ha, 7 DAE",50%
same,% Control,"[3]; 200 g ai/100 kg, rate 0.4 Kg-L/ha, 3 DAE",50.91%
same,% Control,"[3]; 200 g ai/100 kg, rate 0.4 Kg-L/ha, 7 DAE",45.83%
same,% Control,"[3]; 300 g ai/100 kg, rate 0.6 Kg-L/ha, 3 DAE",86.93%
same,% Control,"[3]; 300 g ai/100 kg, rate 0.6 Kg-L/ha, 7 DAE",47.02%
same,% Control,"[3]; 500 g ai/100 kg, rate 1.0 Kg-L/ha, 3 DAE",80%
same,% Control,"[3]; 500 g ai/100 kg, rate 1.0 Kg-L/ha, 7 DAE",63.69%
same,control of corn leafhopper (in words),[3]; summary of Table 4,good control
same,% Control,"[4]; post 1st application, 150 g a.i./ha, 3 DAA",27.8%
same,% Control,"[4]; post 1st application, 150 g a.i./ha, 7 DAA",29.1%
same,% Control,"[4]; post 1st application, 150 g a.i./ha, 10 DAA",28.1%
same,% Control,"[4]; post 1st application, 150 g a.i./ha, 14 DAA",24.4%
same,% Control,"[4]; post 1st application, 200 g a.i./ha, 3 DAA",32.8%
same,% Control,"[4]; post 1st application, 200 g a.i./ha, 7 DAA",34.1%
same,% Control,"[4]; post 1st application, 200 g a.i./ha, 10 DAA",33.7%
same,% Control,"[4]; post 1st application, 200 g a.i./ha, 14 DAA",29.5%
same,% Control,"[4]; post 1st application, 250 g a.i./ha, 3 DAA",38.1%
same,% Control,"[4]; post 1st application, 250 g a.i./ha, 7 DAA",40.1%
same,% Control,"[4]; post 1st application, 250 g a.i./ha, 10 DAA",36.7%
same,% Control,"[4]; post 1st application, 250 g a.i./ha, 14 DAA",32.9%
same,% Control,"[4]; post 2nd application, 150 g a.i./ha, 3 DAA",28.3%
same,% Control,"[4]; post 2nd application, 150 g a.i./ha, 7 DAA",30.4%
same,% Control,"[4]; post 2nd application, 150 g a.i./ha, 10 DAA",31.8%
same,% Control,"[4]; post 2nd application, 150 g a.i./ha, 14 DAA",32.6%
same,% Control,"[4]; post 2nd application, 150 g a.i./ha, 21 DAA",29.9%
same,% Control,"[4]; post 2nd application, 150 g a.i./ha, 28 DAA",28.9%
same,% Control,"[4]; post 2nd application, 150 g a.i./ha, 35 DAA",27.3%
same,% Control,"[4]; post 2nd application, 150 g a.i./ha, 42 DAA",27.1%
same,% Control,"[4]; post 2nd application, 200 g a.i./ha, 3 DAA",35.6%
same,% Control,"[4]; post 2nd application, 200 g a.i./ha, 7 DAA",35.3%
same,% Control,"[4]; post 2nd application, 200 g a.i./ha, 10 DAA",36.3%
same,% Control,"[4]; post 2nd application, 200 g a.i./ha, 14 DAA",35.3%
same,% Control,"[4]; post 2nd application, 200 g a.i./ha, 21 DAA",34.5%
same,% Control,"[4]; post 2nd application, 200 g a.i./ha, 28 DAA",34.5%
same,% Control,"[4]; post 2nd application, 200 g a.i./ha, 35 DAA",33.7%
same,% Control,"[4]; post 2nd application, 200 g a.i./ha, 42 DAA",33.3%
same,% Control,"[4]; post 2nd application, 250 g a.i./ha, 3 DAA",41.4%
same,% Control,"[4]; post 2nd application, 250 g a.i./ha, 7 DAA",42.7%
same,% Control,"[4]; post 2nd application, 250 g a.i./ha, 10 DAA",43.7%
same,% Control,"[4]; post 2nd application, 250 g a.i./ha, 14 DAA",44.4%
same,% Control,"[4]; post 2nd application, 250 g a.i./ha, 21 DAA",41.4%
same,% Control,"[4]; post 2nd application, 250 g a.i./ha, 28 DAA",38.8%
same,% Control,"[4]; post 2nd application, 250 g a.i./ha, 35 DAA",38.1%
same,% Control,"[4]; post 2nd application, 250 g a.i./ha, 42 DAA",37.9%
